Data: patent US20220362312A1, “CANNABIDIOL-ENHANCED PROBIOTIC COMPOSITIONS AND USES THEREOF FOR TREATMENT OF INFECTIONS” (BUZZELET DEVELOPMENT AND TECHNOLOGIES LTD., priority 2019, published 2022)

What was measured:
[1] = tested on: Candida albicans; test: Candida albicans biofilm formation with cannabidiol and/or lactobacillus Casei, crystal violet staining; format: cell-based; details: as compared to Candida albicans alone (row 4); incubation 24 hours
Procedure: A study is performed to evaluate the efficacy of a composition comprising cannabidiol and lactobacillus Casei in treating or preventing an infection by pathogenic microorganisms comprising Candida albicans, via preventing biofilm formation.
RPMI medium supplemented with 1% glucose is introduced into each well of a 24-well plate.
Candida albicans contacted with cannabidiol are added to each well of row 1.
Candida albicans contacted with lactobacillus Casei are added to each well of row 2.
Candida albicans contacted with cannabidiol and lactobacillus Casei are added to each well of row 3.
Candida albicans alone are added to each well of row 4.
After incubation for 24 hours, spent medium and free-floating fungi are removed by gentle aspiration and the wells washed twice with phosphate-buffered saline (PBS, pH 7.4).
The presence of biofilm is quantified by crystal violet staining as described above for Example 3.

[2] = tested on: Staphylococcus Aureus; test: Disc-diffusion agar method, antibacterial effect; details: for growth inhibition: 48 hours at 30° C.; for effect on growth: at the concentrations tested (0.5 μg and 2 μg)
[3] = tested on: Escherichia coli; test: Disc-diffusion agar method, antibacterial effect; details: for growth inhibition: 48 hours at 30° C.; for effect on growth: at the concentrations tested (0.5 μg and 2 μg)
[4] = tested on: Bacillus Thuringiensis; test: Disc-diffusion agar method, antibacterial effect; details: for area of inhibited bacterial growth / growth inhibition: 48 hours at 30° C.; for effect on growth: at the concentrations tested (0.5 μg and 2 μg)
[5] = tested on: Lactobacillus casei; test: Disc-diffusion agar method, antibacterial effect; details: for growth inhibition: Lactobacillus casei, 48 hours at 30° C.; for effect on growth: lactobacillus Casei, at the concentrations tested (0.5 μg and 2 μg)

`C=C(C)[C@@H]1CCC(C)=C[C@H]1c1c(O)cc(CCCCC)cc1O` [CBD, cannabidiol] was tested, and the biofilm formation [1] was “significantly inhibited”, the growth inhibition ([2]; 0.5 μg on disc) was “−” and the growth inhibition ([2]; 2 μg on disc) was “−”. For the same compound, the “effect on growth” value [2] was “no effect”, the growth inhibition ([3]; 0.5 μg on disc) was “−” and the growth inhibition ([3]; 2 μg on disc) was “−”. The “effect on growth” value [3] was “no effect”, the “area of inhibited bacterial growth” value ([4]; 0.5 μg on disc) was 2 mm and the growth inhibition ([4]; 0.5 μg on disc) was “+”. For the same compound, the “area of inhibited bacterial growth” value ([4]; 2 μg on disc) was 3 mm, the growth inhibition ([4]; 2 μg on disc) was “+” and the “effect on growth” value [4] was “inhibit growth”. For the same compound, the growth inhibition ([5]; 0.5 μg on disc) was “−”, the growth inhibition ([5]; 2 μg on disc) was “−” and the “effect on growth” value [5] was “no effect”.

In the case of `CCCCCc1cc(O)c2c(c1)OC(C)(C)[C@@H]1CCC(C)=C[C@@H]21` [THC, tetrahydrocannabiniol], the growth inhibition ([2]; 0.5 μg on disc) is reported as “−”, the growth inhibition ([2]; 2 μg on disc) is reported as “−” and the “effect on growth” value [2] is reported as “no effect”. The growth inhibition ([3]; 0.5 μg on disc) was “−”, the growth inhibition ([3]; 2 μg on disc) was “−” and the “effect on growth” value [3] was “no effect”. For the same compound, the “area of inhibited bacterial growth” value ([4]; 0.5 μg on disc) was 1 mm, the growth inhibition ([4]; 0.5 μg on disc) was “+” and the “area of inhibited bacterial growth” value ([4]; 2 μg on disc) was under 1 mm. The growth inhibition ([4]; 2 μg on disc) was “+”, the “effect on growth” value [4] was “inhibit growth” and the growth inhibition ([5]; 0.5 μg on disc) was “−”. The growth inhibition ([5]; 2 μg on disc) was “−” and the “effect on growth” value [5] was “no effect”.
